{"source": "patent US20250018014A1", "about": "“METHOD FOR TREATING AND/OR PREVENTING REGNASE-1-RELATED DISEASE” (OSAKA UNIVERSITY, priority 2018, published 2025)", "key": {"[1]": {"molecular_target": "T1, FL_Reg1 (full-length human Regnase-1) phosphorylation by TBK1 (Homo sapiens, UniProt Q5D1E8)", "T1 construct": "made in house; host or cells: Expi293 cells", "T1 sequence (Q5D1E8 1-599)": "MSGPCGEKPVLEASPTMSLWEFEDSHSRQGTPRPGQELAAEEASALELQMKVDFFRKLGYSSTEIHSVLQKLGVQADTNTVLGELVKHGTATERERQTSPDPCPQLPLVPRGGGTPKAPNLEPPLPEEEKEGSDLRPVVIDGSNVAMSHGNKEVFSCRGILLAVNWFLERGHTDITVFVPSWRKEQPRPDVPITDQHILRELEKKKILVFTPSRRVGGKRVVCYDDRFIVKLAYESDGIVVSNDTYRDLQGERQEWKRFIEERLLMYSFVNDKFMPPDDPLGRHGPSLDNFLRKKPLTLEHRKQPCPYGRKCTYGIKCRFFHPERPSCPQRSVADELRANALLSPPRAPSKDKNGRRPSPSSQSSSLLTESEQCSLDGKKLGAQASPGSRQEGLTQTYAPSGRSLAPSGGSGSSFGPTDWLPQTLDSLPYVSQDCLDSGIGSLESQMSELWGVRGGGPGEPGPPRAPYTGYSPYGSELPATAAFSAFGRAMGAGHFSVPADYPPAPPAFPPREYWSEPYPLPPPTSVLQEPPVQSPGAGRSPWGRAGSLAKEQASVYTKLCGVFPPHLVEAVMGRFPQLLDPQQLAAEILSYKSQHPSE", "assay": "Regnase-1 phosphorylation inhibition by compounds (AlphaScreen), TBK1, full-length Regnase-1", "assay_type": "biochemical", "conditions": "Table 13; phosphorylation by TBK1; read-out: Phosphorylation inhibition FL_Reg1, 50% inhibition concentration (TBK1)", "description": "(§1) The full-length sequence of human Regnase-1 (UniProt ID: Q5D1E8) was used to prepare a construct having a FLAG tag on the N-terminal side and a recognition sequence for biotin ligase BirA on the C-terminal side (FL_Reg1) as a target protein. The above-mentioned Regnase-1 was expressed in mammalian Expi293 cells, purified with FLAG M2 agarose, and isolated by gel filtration chromatography. When biotinylation was required, methods from nonpatent documents (BMC biotechnology, 2008,8,41; and Protein Science, 1999,8,921-929) were used. […]\n(§2) Using Kinase assay buffer III (manufactured by SignalChem) supplemented with 2 mM DTT, 100 μM sodium vanadate, and 2 mM manganese chloride, kinase (IKKβ (manufactured by SignalChem) or TBK1 (manufactured by SignalChem)) and Regnase-1 were reacted in the presence of 10 μM ATP at room temperature for 2 hours to perform a phosphorylation reaction.\n(§3) Phosphorylated Regnase-1 was detected by the AlphaScreen system. After each of the above-mentioned phosphorylated Regnase-1 antibodies was added and reacted at room temperature for one hour, anti-FLAG AlphaLISA Acceptor Beads (manufactured by PerkinElmer) and Protein A AlphaScreen Donor Beads (manufactured by PerkinElmer) were added, and EnVision (manufactured by PerkinElmer) was used to measure the excited luminescence. As a result, phosphorylated Regnase-1 produced by the phosphorylation reaction by kinase was specifically detected, and signals were confirmed to be enhanced in a manner dependent on Regnase-1 and kinase concentrations (FIG. 24).\n(§4) After mixing 2 nM of the above-mentioned Regnase-1 and the compound, phosphorylated Regnase-1 produced by the phosphorylation reaction was detected by the AlphaScreen system. As the results, the inhibition rate was calculated from the signals obtained when adding the compound at each concentration, by defining the signal obtained with Regnase-1 alone to be 100% inhibition rate, and the signal obtained when the same amount of solvent (DMSO) is added in place of the compound as 0% inhibition rate. The 50% inhibition concentration (μM) was calculated from the obtained dose response curve (Table 11)."}, "[2]": {"molecular_target": "T2, Reg1_301-599 (amino acids 301-599 of human Regnase-1) phosphorylation by TBK1 (Homo sapiens, UniProt Q5D1E8)", "T2 construct": "made in house; host or cells: Expi293 cells", "T2 sequence (Q5D1E8 301-599)": "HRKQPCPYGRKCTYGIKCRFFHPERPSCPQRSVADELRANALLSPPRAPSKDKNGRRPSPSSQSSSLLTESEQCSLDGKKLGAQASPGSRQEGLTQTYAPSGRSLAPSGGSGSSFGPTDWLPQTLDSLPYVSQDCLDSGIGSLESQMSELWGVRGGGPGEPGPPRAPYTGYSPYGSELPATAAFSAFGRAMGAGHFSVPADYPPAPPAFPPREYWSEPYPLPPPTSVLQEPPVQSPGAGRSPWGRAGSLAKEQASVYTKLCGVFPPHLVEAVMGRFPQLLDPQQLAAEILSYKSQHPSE", "assay": "Regnase-1 phosphorylation inhibition by compounds (AlphaScreen), TBK1, C-terminal Regnase-1", "assay_type": "biochemical", "conditions": "Table 13, read-out: Phosphorylation inhibition Reg1_301-599, 50% inhibition concentration (TBK1)", "description": "(§5) Among the full-length human Regnase-1 sequence, the 1st to 546th amino acid sequence was prepared and made into a construct having a FLAG tag on the N-terminal side and a biotin ligase BirA recognition sequence on the C-terminal side (herein, a Regnase-1 lacking the C-terminal domain of Regnase-1 (amino acids 547 to 599 in the case of SEQ ID NO: 2) is referred to as “ΔCTD_Reg1”. “ΔCTD_Reg1” is different from “Regnase-1ΔCTD”, which is a C-terminal domain deletion variant resulting from a frameshift mutation caused by a 1 bp deletion at codon 517, as prepared in Example 13). In addition, the sequence from amino acids 301 to 599 of the full-length human Regnase-1 sequence was designated as C-terminal Regnase-1, and a construct having a FLAG tag on the N-terminal side and a recognition sequence for biotin ligase BirA on the C-terminal side was prepared (Reg1_301-599). The above-mentioned Regnase-1 was expressed in mammalian Expi293 cells, purified with FLAG M2 agarose, and isolated by gel filtration chromatography. When biotinylation was required, methods of nonpatent documents (BMC biotechnology, 2008,8,41; and Protein Science, 1999,8,921-929) were used.\nas §2, §3, §4"}, "[3]": {"molecular_target": "T3, FL_Reg1 (full-length human Regnase-1) phosphorylation by IKKβ (Homo sapiens, UniProt Q5D1E8)", "T3 construct": "made in house; host or cells: Expi293 cells", "T3 sequence (Q5D1E8 1-599)": "T1 sequence (Q5D1E8 1-599)", "assay": "Regnase-1 phosphorylation inhibition by compounds (AlphaScreen), IKKβ, full-length Regnase-1", "assay_type": "biochemical", "conditions": "Table 14; phosphorylation by IKKβ; read-out: Phosphorylation inhibition FL_Reg1, 50% inhibition concentration (IKKβ)", "description": "as §1, §2, §3, §4"}, "[4]": {"molecular_target": "T4, binding between TBK1 and full-length Regnase-1 (FL_Reg1) (Homo sapiens, UniProt Q5D1E8)", "T4 construct": "made in house; host or cells: Expi293 cells", "T4 sequence (Q5D1E8 1-599)": "T1 sequence (Q5D1E8 1-599)", "assay": "Inhibition of kinase-Regnase-1 binding by the compounds (AlphaScreen), TBK1", "conditions": "Table 13; binding between TBK1 and Regnase-1; read-out: Binding inhibition FL_Reg1, 50% inhibition concentration (TBK1)", "description": "(§6) As a target protein, a construct having a FLAG tag on the N-terminal side and a recognition sequence for biotin ligase BirA on the C-terminal side of the full-length sequence of human Regnase-1 (UniProt ID: Q5D1E8) was prepared (FL_Reg1). The above-mentioned Regnase-1 was expressed in mammalian Expi293 cells, purified with FLAG M2 agarose, and isolated by gel filtration chromatography. When biotinylation was required, methods from nonpatent documents (BMC biotechnology, 2008,8,41; and Protein Science, 1999,8,921-929) were used.\n(§7) After mixing 2.5 nM of the above-mentioned Regnase-1 and the compound, 2.5 nM of IKKβ or TBK1 was added and reacted at room temperature for two hours. Then, Anti FLAG AlphaLISA Acceptor Beads (manufactured by PerkinElmer) and Glutathione-coated AlphaScreen Donor Beads (manufactured by PerkinElmer) were added, and excited luminescence was measured using En Vision (manufactured by PerkinElmer). As the results, the inhibition rate from the signals obtained when adding the compound at each concentration were calculated, by defining the signal obtained with Regnase-1 alone to be 100% inhibition rate, and the signal obtained when the same amount of solvent (DMSO) is added in place of the compound as 0% inhibition rate. The 50% inhibition concentration (μM) was calculated from the obtained dose response curve (Table 12)."}, "[5]": {"molecular_target": "T5, binding between IKKβ and full-length Regnase-1 (FL_Reg1) (Homo sapiens, UniProt Q5D1E8)", "T5 construct": "made in house; host or cells: Expi293 cells", "T5 sequence (Q5D1E8 1-599)": "T1 sequence (Q5D1E8 1-599)", "assay": "Inhibition of kinase-Regnase-1 binding by the compounds (AlphaScreen), IKKβ", "conditions": "Table 14; binding between IKKβ and Regnase-1; read-out: Binding inhibition FL_Reg1, 50% inhibition concentration (IKKβ)", "description": "as §6, §7"}, "[6]": {"molecular_target": "T6, Reg1_301-599 (amino acids 301-599 of human Regnase-1) phosphorylation by IKKβ (Homo sapiens, UniProt Q5D1E8)", "T6 construct": "made in house; host or cells: Expi293 cells", "T6 sequence (Q5D1E8 301-599)": "T2 sequence (Q5D1E8 301-599)", "assay": "Regnase-1 phosphorylation inhibition by compounds (AlphaScreen), IKKβ, C-terminal Regnase-1", "assay_type": "biochemical", "conditions": "Table 14, read-out: Phosphorylation inhibition Reg1_301-599, 50% inhibition concentration (IKKβ)", "description": "The full-length sequence of human Regnase-1 (UniProt ID: Q5D1E8) was used to prepare a construct having a FLAG tag on the N-terminal side and a recognition sequence for biotin ligase BirA on the C-terminal side (FL_Reg1) as a target protein. The above-mentioned Regnase-1 was expressed in mammalian Expi293 cells, purified with FLAG M2 agarose, and isolated by gel filtration chromatography. When biotinylation was required, methods from nonpatent documents (BMC biotechnology, 2008,8,41; and Protein Science, 1999,8,921-929) were used.\nas §5, §2, §3, §4"}}, "note": "Residues, ends and D or L forms follow the SMILES beside them."}
{"smiles": "CC[C@H](C)[C@@H]1NC(=O)[C@H](C)NC(=O)[C@H](CCCNC(=N)N)NC(=O)[C@H](Cc2ccc(O)cc2)NC(=O)[C@H](Cc2ccc(O)cc2)NC(=O)[C@H](C)NC(=O)[C@H](CO)NC(=O)[C@H](CC(N)=O)NC(=O)[C@H](Cc2ccccc2)NC(=O)[C@H](CC(N)=O)NC(=O)[C@H](C)N(C)C(=O)C[C@@H](C(=O)N2CCCC2)NC(=O)[C@H](Cc2c[nH]c3ccccc23)NC1=O", "note": "[PP7] (HELM PEPTIDE1{[meA].N.F.N.S.A.Y.Y.R.A.I.W.D.[C1CCN([*:1])C1]}$PEPTIDE1,PEPTIDE1,1:R1-13:R3$$$V2.0)", "values": [{"measurement": "IC50", "setting": "[1]", "result": 2.2, "unit": "µM"}, {"measurement": "IC50", "setting": "[2]", "result": 4.6, "unit": "µM"}, {"measurement": "IC50", "setting": "[3]", "result": 0.8, "unit": "µM"}, {"measurement": "IC50", "setting": "[4]", "result": 17.9, "unit": "µM"}, {"measurement": "IC50", "setting": "[5]", "result": 15.1, "unit": "µM"}]}
{"smiles": "CC[C@H](C)[C@@H]1NC(=O)[C@H](CC(N)=O)NC(=O)[C@H](Cc2ccc(O)cc2)NC(=O)[C@H](Cc2c[nH]c3ccccc23)NC(=O)[C@H](CO)NC(=O)[C@H](CC(N)=O)NC(=O)[C@H](Cc2c[nH]c3ccccc23)NC(=O)[C@H](Cc2ccc(O)cc2)NC(=O)[C@H](CCCCN)NC(=O)[C@H](CO)NC(=O)[C@@H](C)N(C)C(=O)C[C@@H](C(=O)N2CCCC2)NC(=O)[C@H](Cc2c[nH]c3ccccc23)NC1=O", "note": "[PP8] (HELM PEPTIDE1{[C[C@H](C(=O)[*:2])N(C)[*:1]].S.K.Y.W.N.S.W.Y.N.I.W.D.[C1CCN([*:1])C1]}$PEPTIDE1,PEPTIDE1,1:R1-13:R3$$$V2.0)", "values": [{"measurement": "IC50", "setting": "[1]", "result": 2.9, "unit": "µM"}, {"measurement": "IC50", "setting": "[3]", "result": 1.4, "unit": "µM"}, {"measurement": "IC50", "setting": "[6]", "result": 5.7, "unit": "µM"}, {"measurement": "IC50", "setting": "[4]", "result": 6.5, "unit": "µM"}, {"measurement": "IC50", "setting": "[5]", "result": 7.4, "unit": "µM"}]}
